The values that follow come from US3969523A, “Antiphlogistic pharmaceutical compositions containing a 1-(nicotinoyl or isonicotinoyl)-3-biphenylyl-alkanone-(2)” (Boehringer Ingelheim GmbH, priority 1973, dated 1976).

For series [1], the system named is carrageenin-induced edema of the hind paw of the rat. The series can be described thus: Antiphlogistic activity: antiexsudative effect on carrageenin-induced edema of the hind paw of the rat, oral. Type of series: in vivo. The settings on record: p.o., dose leading to 35% reduction of swelling, graphically determined. How it is done: (§1) The antiphlogistic activity was tested to determine the antiexsudative effect on the kaolin-induced edema (see Hillebrecht in Arzneimittelforschung 4, 607 - 614 (1954) and the carrageenin-induced edema (see Winter in Proc. Soc. Exper. Biol. Med. 111, 544 (1962)) of the hind paw of the rat after oral administration of at least 3 doses to at least 10 animals per dose. The dose leading to a 35% reduction of the swelling (ED35) was graphically determined.

For series [2], the system named is kaolin-induced edema of the hind paw of the rat. The series can be described thus: Antiphlogistic activity: antiexsudative effect on kaolin-induced edema of the hind paw of the rat, oral. Type of series: in vivo. The conditions noted are these: p.o., dose leading to 35% reduction of swelling, graphically determined. As to the method: as §1
Series [3] is described as follows: Peroral acute toxicity in rats. The settings on record: in vivo, po; rat; 50% died within 14 days; Litchfield and Wilcoxon. As to the method:
The peroral acute toxicity of the compounds was determined on groups of 10 rats each.

Series [4] is described as follows: in vivo. The conditions noted are these: rat, po. As to the method:
The ulcerogenic activity in the rat was determined after oral administration of the compound for 3 times after 24 hours each time. The animals were killed 4 hours after that, and the number of the animals having an ulcer was recorded.

As to `CC(C(=O)COC(=O)c1ccncc1)c1ccc(-c2ccccc2F)cc1` (stereo not shown) [A, 1-isonicotinoyloxy-3-(2'-fluoro-4"-biphenylyl)-butanone-(2)], the values for the ED35 in series [1] and in series [2] were 22.5 mg/kg and 14 mg/kg, respectively. The compound also had an LD50 at 336 h in series [3] of 1170 mg/kg. The same compound yielded a TD50 in series [4] of 71 mg/kg.

A word on the LD50: it is the dose expected to kill half of the subjects tested. Read a high LD50 as lower toxicity.
